# Measurements as given in patent US20230013244A1 (BioIncept, LLC, priority 2014, published 2023).
# Legend:
# [1] = tested on: PBMCs (CD3+, CD4+/CD25+/FoxP3+, CD8+/CD25+ cells); assay: FITC-PIF binding to naive T-cell subsets of PBMCs, two- and three-color flow cytometry; format: cell-based, human
# [2] = tested on: Lymphocytes; assay: FITC-PIF binding to mare immune cells, flow cytometry, lymphocytes; format: cell-based
# Source text: (§1) Method: whole blood was collected from jugular vein of pregnant (n=4) and non-pregnant (n=8) mares into lithium heparin vacutainers. Whole blood was layered over histopaque (Sigma) density gradient and red cells were allowed to settle through the gradient, leaving a leukocyte-rich plasma layer above. Cells were washed twice in sterile PBS and any remaining RBCs lysed with 0.16 M ammonium chloride solution. […] Cell types were separated based upon their scatter characteristics. […] FIG. 20 and Table 20 show mean+/−SEM in both pregnant and non-pregnant mares, and depicts binding characteristics showing significant differences between FITC-PIF and control, P<0.001.
# [3] = tested on: Granulocytes; assay: FITC-PIF binding to mare immune cells, flow cytometry, granulocytes; format: cell-based
# Source text: as §1
# [4] = tested on: Monocytes; assay: FITC-PIF binding to mare immune cells, flow cytometry, monocytes; format: cell-based
# Source text: as §1
sequence,measurement,setting,value
"GRVDPSNKSMPKDIA [PIFscr, scrambled PIF, control peptide]",binding to CD4+/CD25+/FoxP3+ cells,[1]; 0-100 uM,minimal binding
same,binding to CD3+/CD4+ cells,[1]; FIG. 10A,not replicated
same,"binding to Lymphocytes, Mean","[2]; Non-pregnant mares, 1 ug/ml",0.27
same,"binding to Lymphocytes, Mean","[2]; Pregnant mares, 1 ug/ml",0.12
same,"binding to Lymphocytes, Mean","[2]; Pregnant mares, 5 ug/ml",0.78
same,"binding to Granulocytes, Mean","[3]; Non-pregnant mares, 1 ug/ml",0.26
same,"binding to Granulocytes, Mean","[3]; Pregnant mares, 1 ug/ml",0.09
same,"binding to Granulocytes, Mean","[3]; Pregnant mares, 5 ug/ml",0.93
same,"binding to Monocytes, Mean","[4]; Non-pregnant mares, 1 ug/ml",1.10
same,"binding to Monocytes, Mean","[4]; Non-pregnant mares, 5 ug/ml",5.20
same,"binding to Monocytes, Mean","[4]; Pregnant mares, 1 ug/ml",0.78
